ChEMBL document CHEMBL4507317, “Data for DCP probe BAY-899” (2021)

Legend:
[1] = target: Dual specificity protein kinase CLK4 (Homo sapiens) (UniProt Q9HAZ1); settings: Compound concentration 1000.0 nM
[2] = target: Ribosomal protein S6 kinase alpha-2 (Homo sapiens) (UniProt Q15349); settings: Compound concentration 1000.0 nM
[3] = target: Dual specificity mitogen-activated protein kinase kinase 4 (Homo sapiens) (UniProt P45985); settings: Compound concentration 1000.0 nM
[4] = target: NT-3 growth factor receptor (Homo sapiens) (UniProt Q16288); settings: Compound concentration 1000.0 nM
Sequence of NT-3 growth factor receptor (Homo sapiens) (Q16288 32-839 limits assumed): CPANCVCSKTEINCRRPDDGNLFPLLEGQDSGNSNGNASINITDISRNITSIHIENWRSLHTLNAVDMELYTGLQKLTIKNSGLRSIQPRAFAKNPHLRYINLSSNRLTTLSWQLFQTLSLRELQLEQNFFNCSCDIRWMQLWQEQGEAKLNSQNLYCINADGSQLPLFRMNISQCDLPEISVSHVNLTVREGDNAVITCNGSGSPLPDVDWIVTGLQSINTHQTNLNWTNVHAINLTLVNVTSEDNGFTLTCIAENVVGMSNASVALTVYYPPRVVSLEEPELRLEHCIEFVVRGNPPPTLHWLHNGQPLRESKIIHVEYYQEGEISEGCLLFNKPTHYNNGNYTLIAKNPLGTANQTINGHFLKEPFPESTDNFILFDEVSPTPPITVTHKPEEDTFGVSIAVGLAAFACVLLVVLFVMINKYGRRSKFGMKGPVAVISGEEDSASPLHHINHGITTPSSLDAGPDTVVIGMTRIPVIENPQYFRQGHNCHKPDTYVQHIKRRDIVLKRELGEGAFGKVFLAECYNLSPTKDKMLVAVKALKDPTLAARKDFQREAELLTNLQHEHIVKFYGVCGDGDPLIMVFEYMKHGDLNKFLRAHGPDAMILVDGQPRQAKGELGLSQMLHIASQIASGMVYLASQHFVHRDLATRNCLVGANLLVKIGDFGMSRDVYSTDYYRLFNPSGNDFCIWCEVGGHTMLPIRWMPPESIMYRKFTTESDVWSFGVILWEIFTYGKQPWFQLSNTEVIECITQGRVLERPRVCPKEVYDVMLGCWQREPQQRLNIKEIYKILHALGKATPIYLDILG

[5] = target: Serine/threonine-protein kinase TAO2 (Homo sapiens) (UniProt Q9UL54); settings: Compound concentration 1000.0 nM
[6] = target: Mitogen-activated protein kinase 15 (Homo sapiens) (UniProt Q8TD08); settings: Compound concentration 1000.0 nM
[7] = target: RAC-beta serine/threonine-protein kinase (Homo sapiens) (UniProt P31751); settings: Compound concentration 1000.0 nM
[8] = target: Serine/threonine-protein kinase PLK4 (Homo sapiens) (UniProt O00444); settings: Compound concentration 1000.0 nM
Sequence of Serine/threonine-protein kinase PLK4 (Homo sapiens) (O00444 whole entry): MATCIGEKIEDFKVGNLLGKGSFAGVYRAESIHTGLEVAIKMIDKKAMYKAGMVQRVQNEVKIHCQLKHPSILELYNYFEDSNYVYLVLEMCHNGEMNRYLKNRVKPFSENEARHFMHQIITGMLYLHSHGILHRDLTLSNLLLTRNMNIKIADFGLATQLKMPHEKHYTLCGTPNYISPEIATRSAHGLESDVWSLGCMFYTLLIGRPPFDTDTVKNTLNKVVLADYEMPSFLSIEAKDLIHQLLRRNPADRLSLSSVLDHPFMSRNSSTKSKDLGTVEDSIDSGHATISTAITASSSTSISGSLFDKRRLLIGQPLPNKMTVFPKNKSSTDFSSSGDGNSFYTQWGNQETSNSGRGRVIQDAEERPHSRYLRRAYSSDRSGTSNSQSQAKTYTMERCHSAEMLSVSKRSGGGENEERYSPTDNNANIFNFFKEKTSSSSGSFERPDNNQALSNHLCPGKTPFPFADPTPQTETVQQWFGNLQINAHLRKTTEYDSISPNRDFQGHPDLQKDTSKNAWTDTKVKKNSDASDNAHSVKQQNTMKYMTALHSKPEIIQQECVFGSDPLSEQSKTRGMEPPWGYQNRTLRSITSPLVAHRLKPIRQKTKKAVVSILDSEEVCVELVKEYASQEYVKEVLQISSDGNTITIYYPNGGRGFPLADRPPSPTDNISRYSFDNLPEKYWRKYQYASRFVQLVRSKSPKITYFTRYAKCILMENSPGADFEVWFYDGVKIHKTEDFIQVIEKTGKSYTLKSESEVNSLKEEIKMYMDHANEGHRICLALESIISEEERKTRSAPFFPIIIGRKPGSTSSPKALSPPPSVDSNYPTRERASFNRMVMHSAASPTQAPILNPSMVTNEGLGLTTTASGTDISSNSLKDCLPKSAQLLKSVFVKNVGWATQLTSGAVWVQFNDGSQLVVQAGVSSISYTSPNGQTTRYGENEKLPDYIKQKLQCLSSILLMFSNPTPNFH

[9] = target: Tyrosine-protein kinase Tec (Homo sapiens) (UniProt P42680); settings: Compound concentration 1000.0 nM
Sequence of Tyrosine-protein kinase Tec (Homo sapiens) (P42680 whole entry): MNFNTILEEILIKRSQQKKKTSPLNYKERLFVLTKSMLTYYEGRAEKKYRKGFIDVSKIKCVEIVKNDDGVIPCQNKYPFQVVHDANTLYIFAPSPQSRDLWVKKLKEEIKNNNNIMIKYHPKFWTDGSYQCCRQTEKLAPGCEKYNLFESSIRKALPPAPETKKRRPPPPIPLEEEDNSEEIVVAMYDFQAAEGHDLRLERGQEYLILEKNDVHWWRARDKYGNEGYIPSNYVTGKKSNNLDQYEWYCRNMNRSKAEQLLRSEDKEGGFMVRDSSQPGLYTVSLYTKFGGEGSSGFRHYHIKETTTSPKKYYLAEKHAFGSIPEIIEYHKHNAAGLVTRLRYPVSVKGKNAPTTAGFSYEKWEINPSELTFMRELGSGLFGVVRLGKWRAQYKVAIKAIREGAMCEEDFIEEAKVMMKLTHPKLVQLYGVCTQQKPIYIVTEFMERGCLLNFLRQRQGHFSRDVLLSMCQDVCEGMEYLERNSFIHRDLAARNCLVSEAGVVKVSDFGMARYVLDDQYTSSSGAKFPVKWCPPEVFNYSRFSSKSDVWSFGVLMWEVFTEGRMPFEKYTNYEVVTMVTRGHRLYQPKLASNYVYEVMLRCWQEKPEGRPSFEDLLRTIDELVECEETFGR

[10] = target: Cyclin-dependent kinase 8 (Homo sapiens) (UniProt P49336); settings: Compound concentration 1000.0 nM
[11] = target: Dual specificity testis-specific protein kinase 1 (Homo sapiens) (UniProt Q15569); settings: Compound concentration 1000.0 nM
[12] = target: Aurora kinase C (Homo sapiens) (UniProt Q9UQB9); settings: Compound concentration 1000.0 nM
[13] = test system: Receptor-type tyrosine-protein kinase FLT3 (Homo sapiens), P36888 [UNDEFINED MUTATION]; settings: Compound concentration 1000.0 nM
[14] = target: Serine/threonine-protein kinase Sgk3 (Homo sapiens) (UniProt Q96BR1); settings: Compound concentration 1000.0 nM
[15] = test system: Receptor-type tyrosine-protein kinase FLT3 (Homo sapiens), P36888 [D835V]; settings: Compound concentration 1000.0 nM
[16] = target: Receptor tyrosine-protein kinase erbB-4 (Homo sapiens) (UniProt Q15303); settings: Compound concentration 1000.0 nM
[17] = target: NUAK family SNF1-like kinase 2 (Homo sapiens) (UniProt Q9H093); settings: Compound concentration 1000.0 nM
[18] = target: Ribosomal protein S6 kinase alpha-3 (Homo sapiens) (UniProt P51812); settings: Compound concentration 1000.0 nM
[19] = target: Mitogen-activated protein kinase 11 (Homo sapiens) (UniProt Q15759); settings: Compound concentration 1000.0 nM
Sequence of Mitogen-activated protein kinase 11 (Homo sapiens) (Q15759 whole entry): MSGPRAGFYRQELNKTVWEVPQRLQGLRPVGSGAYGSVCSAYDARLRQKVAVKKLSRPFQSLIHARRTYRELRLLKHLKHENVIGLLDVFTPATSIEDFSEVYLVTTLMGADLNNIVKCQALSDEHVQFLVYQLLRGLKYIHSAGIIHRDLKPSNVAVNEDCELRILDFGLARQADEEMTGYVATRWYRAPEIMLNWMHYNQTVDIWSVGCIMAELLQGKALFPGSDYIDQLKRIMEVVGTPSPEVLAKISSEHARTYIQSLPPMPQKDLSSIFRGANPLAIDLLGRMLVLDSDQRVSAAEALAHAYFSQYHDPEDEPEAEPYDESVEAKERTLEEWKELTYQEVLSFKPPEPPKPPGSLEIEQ

[20] = target: Macrophage colony-stimulating factor 1 receptor (Homo sapiens) (UniProt P07333); settings: Compound concentration 1000.0 nM
[21] = target: Histamine H4 receptor (Homo sapiens) (UniProt Q9H3N8); settings: Compound concentration 10.0 uM
[22] = target: SRSF protein kinase 3 (Homo sapiens) (UniProt Q9UPE1); settings: Compound concentration 1000.0 nM
[23] = target: Phosphatidylinositol 4-phosphate 5-kinase type-1 gamma (Homo sapiens) (UniProt O60331); settings: Compound concentration 1000.0 nM
[24] = target: RAC-alpha serine/threonine-protein kinase (Homo sapiens) (UniProt P31749); settings: Compound concentration 1000.0 nM
[25] = target: 5-hydroxytryptamine receptor 2B (Homo sapiens, UniProt P41595); settings: Compound concentration 10.0 uM
[26] = target: RAC-gamma serine/threonine-protein kinase (Homo sapiens) (UniProt Q9Y243); settings: Compound concentration 1000.0 nM
[27] = target: T1, 5-hydroxytryptamine receptor 1A (Homo sapiens) (UniProt P08908); settings: Compound concentration 10.0 uM
T1 sequence (whole entry): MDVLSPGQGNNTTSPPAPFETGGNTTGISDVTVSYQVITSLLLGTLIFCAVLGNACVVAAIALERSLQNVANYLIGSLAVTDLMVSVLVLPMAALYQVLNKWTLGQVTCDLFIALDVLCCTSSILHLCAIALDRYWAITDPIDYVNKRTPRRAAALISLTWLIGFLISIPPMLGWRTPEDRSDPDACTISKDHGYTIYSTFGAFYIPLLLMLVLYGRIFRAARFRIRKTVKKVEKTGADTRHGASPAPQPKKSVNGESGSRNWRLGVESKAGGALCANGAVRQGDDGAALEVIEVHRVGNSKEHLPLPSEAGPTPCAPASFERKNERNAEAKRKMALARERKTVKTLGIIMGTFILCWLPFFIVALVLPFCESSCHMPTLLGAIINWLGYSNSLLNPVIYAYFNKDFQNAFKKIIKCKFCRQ

[28] = target: Homeodomain-interacting protein kinase 2 (Homo sapiens) (UniProt Q9H2X6); settings: Compound concentration 1000.0 nM
[29] = target: Myosin-IIIa (Homo sapiens) (UniProt Q8NEV4); settings: Compound concentration 1000.0 nM
[30] = target: STE20-like serine/threonine-protein kinase (Homo sapiens) (UniProt Q9H2G2); settings: Compound concentration 1000.0 nM
Sequence of STE20-like serine/threonine-protein kinase (Homo sapiens) (Q9H2G2 whole entry, looked up): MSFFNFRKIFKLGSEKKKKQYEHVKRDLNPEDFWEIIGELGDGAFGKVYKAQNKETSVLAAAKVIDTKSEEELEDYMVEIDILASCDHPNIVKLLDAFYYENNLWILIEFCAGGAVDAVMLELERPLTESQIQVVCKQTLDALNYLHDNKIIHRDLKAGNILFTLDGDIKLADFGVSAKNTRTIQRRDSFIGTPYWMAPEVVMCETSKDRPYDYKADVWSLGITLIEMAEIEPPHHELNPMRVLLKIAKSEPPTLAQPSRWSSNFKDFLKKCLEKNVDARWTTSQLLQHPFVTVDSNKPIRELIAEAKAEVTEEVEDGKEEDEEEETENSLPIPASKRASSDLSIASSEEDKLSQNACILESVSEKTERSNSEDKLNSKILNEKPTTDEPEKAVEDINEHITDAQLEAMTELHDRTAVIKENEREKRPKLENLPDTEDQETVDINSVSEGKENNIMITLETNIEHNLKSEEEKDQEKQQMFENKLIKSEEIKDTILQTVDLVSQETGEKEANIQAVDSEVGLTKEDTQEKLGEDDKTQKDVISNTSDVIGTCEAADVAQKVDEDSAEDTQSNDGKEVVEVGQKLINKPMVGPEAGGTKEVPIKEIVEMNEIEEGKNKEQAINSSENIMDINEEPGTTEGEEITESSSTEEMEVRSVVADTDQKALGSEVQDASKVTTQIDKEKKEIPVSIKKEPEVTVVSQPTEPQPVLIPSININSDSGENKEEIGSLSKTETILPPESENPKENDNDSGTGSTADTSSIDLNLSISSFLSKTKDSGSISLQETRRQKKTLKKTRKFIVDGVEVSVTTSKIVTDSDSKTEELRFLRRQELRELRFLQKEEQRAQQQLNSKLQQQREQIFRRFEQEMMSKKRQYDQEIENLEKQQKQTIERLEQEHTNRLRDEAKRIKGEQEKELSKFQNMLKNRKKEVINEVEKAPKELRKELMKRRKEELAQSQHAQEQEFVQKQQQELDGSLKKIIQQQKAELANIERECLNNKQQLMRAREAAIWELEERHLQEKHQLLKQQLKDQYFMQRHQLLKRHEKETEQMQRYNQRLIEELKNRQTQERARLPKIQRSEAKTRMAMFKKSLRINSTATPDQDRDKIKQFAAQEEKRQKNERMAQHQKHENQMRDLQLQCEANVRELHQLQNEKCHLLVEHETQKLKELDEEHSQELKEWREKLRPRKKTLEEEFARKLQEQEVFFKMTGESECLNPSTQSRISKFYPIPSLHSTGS

[31] = target: Calcium/calmodulin-dependent protein kinase type II subunit delta (Homo sapiens) (UniProt Q13557); settings: Compound concentration 1000.0 nM
[32] = target: Calcium/calmodulin-dependent protein kinase kinase 2 (Homo sapiens) (UniProt Q96RR4); settings: Compound concentration 1000.0 nM
[33] = target: MAP/microtubule affinity-regulating kinase 3 (Homo sapiens) (UniProt P27448); settings: Compound concentration 1000.0 nM

Sequence of Dual specificity protein kinase CLK4 (Homo sapiens) (Q9HAZ1 whole entry, looked up): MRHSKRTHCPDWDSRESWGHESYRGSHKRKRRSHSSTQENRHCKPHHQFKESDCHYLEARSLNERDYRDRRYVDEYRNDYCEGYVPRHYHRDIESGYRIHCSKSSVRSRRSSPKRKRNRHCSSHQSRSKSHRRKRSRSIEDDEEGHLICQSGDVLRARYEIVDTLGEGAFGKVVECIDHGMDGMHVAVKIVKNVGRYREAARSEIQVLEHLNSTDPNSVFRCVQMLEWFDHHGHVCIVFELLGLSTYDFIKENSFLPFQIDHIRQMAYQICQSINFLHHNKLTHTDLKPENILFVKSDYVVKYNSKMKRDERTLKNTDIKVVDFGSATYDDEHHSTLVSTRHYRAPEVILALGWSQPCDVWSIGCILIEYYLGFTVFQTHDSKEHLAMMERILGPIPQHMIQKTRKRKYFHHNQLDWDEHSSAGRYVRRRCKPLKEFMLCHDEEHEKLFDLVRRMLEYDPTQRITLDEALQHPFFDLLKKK
Sequence of Dual specificity mitogen-activated protein kinase kinase 4 (Homo sapiens) (P45985 whole entry): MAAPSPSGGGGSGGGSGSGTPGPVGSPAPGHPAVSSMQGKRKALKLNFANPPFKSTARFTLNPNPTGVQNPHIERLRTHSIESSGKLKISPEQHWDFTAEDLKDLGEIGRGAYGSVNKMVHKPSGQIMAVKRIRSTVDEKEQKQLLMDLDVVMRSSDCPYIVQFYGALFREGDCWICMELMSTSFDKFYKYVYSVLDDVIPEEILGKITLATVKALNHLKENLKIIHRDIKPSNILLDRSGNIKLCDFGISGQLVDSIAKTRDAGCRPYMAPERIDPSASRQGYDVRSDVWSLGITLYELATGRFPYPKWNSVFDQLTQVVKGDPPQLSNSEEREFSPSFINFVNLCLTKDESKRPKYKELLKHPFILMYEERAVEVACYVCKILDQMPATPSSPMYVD

Row | SMILES | residual activity [1] [%] | residual activity [2] [%] | residual activity [3] [%] | residual activity [4] [%] | residual activity [5] [%] | residual activity [6] [%] | residual activity [7] [%] | residual activity [8] [%] | residual activity [9] [%] | residual activity [10] [%] | residual activity [11] [%] | residual activity [12] [%] | residual activity [13] [%] | residual activity [14] [%] | residual activity [15] [%] | residual activity [16] [%] | residual activity [17] [%] | residual activity [18] [%] | residual activity [19] [%] | residual activity [20] [%] | also measured
1 | O=C(Nc1ccc(Oc2ccc(F)cc2)cc1)N1CCc2ncccc2[C@H]1c1ccc(F)cc1 [BAY-897] | 100 | 94 | 86 | 68 | 100 | 94 | 96 | 94 | 86 | 95 | 100 | 87 | 93 | 97 | 96 | 82 | 82 | 84 | 100 | 95 | inhibition [21]: 7.56%; residual activity [22]: 100%; residual activity [23]: 96%; residual activity [24]: 95%; inhibition [25]: 52.4%; residual activity [26]: 95%; inhibition [27]: -3.56%; residual activity [28]: 79%; residual activity [29]: 100%; residual activity [30]: 100%; residual activity [31]: 89%; residual activity [32]: 100%; residual activity [33]: 100%
2 | O=C(Nc1cnc(Oc2ccc(F)cc2)nc1)N1CCc2ncccc2[C@@H]1c1ccc(F)cc1 [BAY-899] | 100 | 79 | 100 | 75 | 87 | 93 | 100 | 100 | 89 | 70 | 91 | 81 | 100 | 100 | 100 | 97 | 100 | 97 | 84 | 93 | inhibition [21]: -4.41%; residual activity [22]: 100%; residual activity [23]: 100%; residual activity [24]: 100%; inhibition [25]: 37.6%; residual activity [26]: 78%; inhibition [27]: -8.97%; residual activity [28]: 91%; residual activity [29]: 100%; residual activity [30]: 82%; residual activity [31]: 92%; residual activity [32]: 93%; residual activity [33]: 100%
